Data taken from PubChem BioAssay (NCI).
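The compound was tested at five concentrations on cells cultured in 96-well plates, with a 48-hour exposure period. At the TGI there is no net growth.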

Key:
Assay in all cases: DTP human tumour cell line panel, 48 h
HCT-15 colon = system: HCT-15 colon
T-47D breast = system: T-47D breast
M14 melanoma = system: M14 melanoma
RXF 393 renal = system: RXF 393 renal
COLO 205 colon = system: COLO 205 colon
EKVX NSCLC = system: EKVX NSCLC
HT29 colon = system: HT29 colon
SK-MEL-2 melanoma = system: SK-MEL-2 melanoma
OVCAR-5 ovarian = system: OVCAR-5 ovarian
SR leukemia = system: SR leukemia
KM12 colon = system: KM12 colon
HL-60(TB) leukemia = system: HL-60(TB) leukemia
MOLT-4 leukemia = system: MOLT-4 leukemia
786-0 renal = system: 786-0 renal
HCC-2998 colon = system: HCC-2998 colon
NCI-H460 lung = system: NCI-H460 lung
IGROV1 ovarian = system: IGROV1 ovarian
MALME-3M melanoma = system: MALME-3M melanoma
HCT-116 colon = system: HCT-116 colon
NCI-H522 lung = system: NCI-H522 lung

Row | Compound | TGI (HCT-15 colon) [µM] | TGI (T-47D breast) [µM] | TGI (M14 melanoma) [µM] | TGI (RXF 393 renal) [µM] | TGI (COLO 205 colon) [µM] | TGI (EKVX NSCLC) [µM] | TGI (HT29 colon) [µM] | TGI (SK-MEL-2 melanoma) [µM] | TGI (OVCAR-5 ovarian) [µM] | TGI (SR leukemia) [µM] | TGI (KM12 colon) [µM] | TGI (HL-60(TB) leukemia) [µM] | TGI (MOLT-4 leukemia) [µM] | TGI (786-0 renal) [µM] | TGI (HCC-2998 colon) [µM] | TGI (NCI-H460 lung) [µM] | TGI (IGROV1 ovarian) [µM] | TGI (MALME-3M melanoma) [µM] | TGI (HCT-116 colon) [µM] | TGI (NCI-H522 lung) [µM]
1 | CC1(c2cccs2)CC(c2cccs2)=C(C#N)C(=C(C#N)C#N)N1 (configuration not stated) | 33.8 | 39.4 | 40.5 | 38.7 | 39.9 | 33.6 | 34.4 | 37.4 | 39.3 | > 100 | 32.3 | 33.1 | > 100 | 35 | 31.1 | 43.9 | 33.4 | 35 | 31.6 | –
2 | C[N+](CCCl)(CCCl)Cc1cccc2cccc([N+](=O)[O-])c12 | > 100 | > 100 | > 100 | > 100 | > 100 | > 100 | > 100 | > 100 | > 100 | > 100 | > 100 | > 100 | > 100 | > 100 | – | > 100 | > 100 | > 100 | > 100 | > 100
3 | CCCCS(=O)CCC(N)P(=O)(O)O (configuration not stated) | > 100 | > 100 | > 100 | – | > 100 | > 100 | > 100 | > 100 | > 100 | > 100 | > 100 | > 100 | > 100 | > 100 | – | > 100 | > 100 | > 100 | > 100 | > 100
4 | COc1cccc2c1OC(c1ccc(Cl)cc1)C([N+](=O)[O-])=C2 (configuration not stated) | 10.8 | 9.13 | 2.57 | 3.32 | 5.74 | 24.2 | 3.21 | – | 7.84 | > 100 | 4.84 | > 100 | 8.58 | 3.63 | – | 4.92 | 9.19 | 5.32 | 2.67 | 3.23
5 | Oc1c(C2=NNC(c3ccc(Cl)cc3Cl)C2)ccc2ccccc12 (configuration not stated) | > 100 | > 100 | > 100 | > 100 | > 100 | – | > 100 | > 100 | > 100 | 35 | > 100 | – | 31.4 | > 100 | > 100 | > 100 | > 100 | > 100 | > 100 | > 100
6 | NC1CC(=O)c2c(Br)csc21 (configuration not stated) | > 100 | > 100 | > 100 | > 100 | > 100 | > 100 | > 100 | > 100 | > 100 | > 100 | > 100 | 81.9 | > 100 | > 100 | 44.8 | > 100 | > 100 | > 100 | > 100 | –
7 | Cc1cc2c(cc1Cl)SC(NS(=O)(=O)c1ccc(Cl)cc1)=NS2(=O)=O | > 100 | > 100 | > 100 | 66.5 | > 100 | > 100 | > 100 | > 100 | > 100 | 30.4 | > 100 | > 100 | 73 | > 100 | – | > 100 | > 100 | – | > 100 | 84.2
8 | OCCCCCCCCCCCOc1ccc(C2OCC3(CO2)COC(c2ccc(OCCCCCCCCCCCO)cc2)OC3)cc1 (configuration not stated) | > 50 | > 50 | > 50 | – | > 50 | > 50 | > 50 | > 50 | > 50 | > 50 | > 50 | – | > 50 | > 50 | > 50 | > 50 | > 50 | > 50 | > 50 | –
9 | CCCC(=O)n1[nH]c(=O)n(-c2ccc(Cl)cc2)c1=O | > 100 | > 100 | > 100 | > 100 | > 100 | > 100 | > 100 | > 100 | > 100 | > 100 | > 100 | > 100 | > 100 | > 100 | > 100 | > 100 | > 100 | > 100 | > 100 | –
10 | CC(C)(C)[Si](C)(C)OCC1OC(n2ccc(N)nc2=O)C(O[Si](C)(C)C(C)(C)C)C1O[Si](C)(C)C(C)(C)C (configuration not stated) | 5.25 | 11.6 | 3.24 | – | 9.84 | 9.83 | 3.02 | 4.89 | 3.58 | 6.66 | – | – | – | 3.01 | – | 3.7 | 3.94 | 4.11 | 11.6 | 3.36
11 | CCCCCCCCCC1(N=[N+]=[N-])C(=O)c2ccccc2N(C)C1=O (configuration not stated) | > 100 | 9.17 | 64.6 | 55.3 | > 100 | – | > 100 | 69 | 82.9 | > 100 | > 100 | > 100 | – | > 100 | 96.2 | > 100 | 60.7 | 70.2 | 75.2 | –
12 | CN(C(=O)C1=CCC2(CC1)OCCO2)c1ccccc1OS(=O)(=O)C(F)(F)F | > 100 | > 100 | > 100 | > 100 | > 100 | > 100 | – | > 100 | > 100 | > 100 | > 100 | > 100 | > 100 | > 100 | > 100 | > 100 | – | – | > 100 | –
13 | CCOC(=O)c1c(-c2ccc(OC)cc2)c(C#N)c(=S)n(C2OC(COC(C)=O)C(OC(C)=O)C(OC(C)=O)C2OC(C)=O)c1-c1ccccc1 (configuration not stated) | > 100 | > 100 | > 100 | > 100 | – | – | > 100 | > 100 | > 100 | > 100 | > 100 | > 100 | > 100 | > 100 | > 100 | > 100 | > 100 | > 100 | > 100 | –
14 | CCCCc1c(N(C)C)c(OC(C)=O)c(-c2cn(C)c3ccccc23)oc1=O | 53.7 | > 100 | 35.8 | > 100 | 44.1 | > 100 | 47.5 | 40.7 | > 100 | > 100 | 37.5 | 51.1 | > 100 | > 100 | – | > 100 | – | 62.3 | 40.9 | 49.5
15 | CNC(C#N)c1ccc(OC)cc1 (configuration not stated) | > 100 | > 100 | > 100 | > 100 | > 100 | > 100 | > 100 | > 100 | > 100 | – | > 100 | > 100 | > 100 | > 100 | > 100 | > 100 | > 100 | > 100 | > 100 | > 100
16 | OC1(C(F)(F)F)OCCN=C1C(F)(F)F (configuration not stated) | > 100 | > 100 | > 100 | > 100 | > 100 | > 100 | > 100 | > 100 | > 100 | – | > 100 | > 100 | > 100 | > 100 | > 100 | > 100 | > 100 | 76.4 | > 100 | > 100
17 | CC(=O)O[C@H]1C[C@H]2[C@@H](OC(C)=O)/C=C3\C[C@](C)(C(=O)[C@H](O)C(=C1C)C2(C)C)[C@@H](O)C[C@@H]3OC(=O)[C@H](O)[C@H](c1ccccc1)N(C)C | > 100 | > 100 | > 100 | > 100 | > 100 | > 100 | – | – | > 100 | > 100 | > 100 | > 100 | > 100 | > 100 | – | > 100 | > 100 | > 100 | > 100 | > 100
18 | Cc1c([N+](=O)[O-])ccc2c(NCCCN(C)C)ccnc12 | 32.7 | 76.5 | 29.9 | 60.8 | 24.7 | – | 34.1 | 31.8 | 92.5 | > 100 | 32.1 | > 100 | > 100 | 89.3 | – | 33.2 | 52.7 | 31.7 | 35.3 | 31.9
19 | CS(=O)(=O)O[C@H]1CN2C[C@@H](O)[C@@H](O)[C@H]2[C@H]1CO | > 100 | > 100 | > 100 | > 100 | > 100 | > 100 | > 100 | > 100 | > 100 | > 100 | > 100 | – | > 100 | > 100 | > 100 | > 100 | > 100 | > 100 | > 100 | –
20 | COC(=O)c1ccc(C(=O)NC(Cc2ccc(Oc3cc(CC(NC(=O)c4ccccc4C(=O)OC)C(=O)OC)ccc3OC)cc2)C(=O)OC)cc1 (configuration not stated) | > 100 | > 100 | > 100 | – | > 100 | > 100 | > 100 | > 100 | > 100 | > 100 | > 100 | > 100 | > 100 | > 100 | > 100 | > 100 | > 100 | > 100 | > 100 | –
